From patent US20240033224A1, “ENTERIC-COATED PELLET, METHOD FOR PREPARING SAME AND FORMULATION COMPRISING SAME” (LIVZON PHARMACEUTICAL GROUP INC., priority 2020, published 2024)

Assay: Stability of prazole starting materials in phosphate buffer media at pH 6.8 and 8.0
Procedure: Phosphate buffer media at pH 6.8 and 8.0 containing 0.5% w/w of sodium dodecyl sulfate were prepared, added into dissolution cups, with 1000 mL per cup. 0.5 mg of each of ilaprazole, omeprazole magnesium, esomeprazole magnesium, rabeprazole sodium, pantoprazole and lansoprazole was weighed and added into the dissolution cups, stirred at 150 rpm by a paddle method to ensure that the prazole starting materials sank into the media and dissolved therein. 5 mL of each of the samples was collected at 15 min, 30 min, 45 min and 60 min respectively, and added to 20 mL of sodium hydroxide stabilization medium, and then the volume was made up to 50 mL with the mobile phase.
The collected sample content in the media was determined according to the determination method of omeprazole magnesium, esomeprazole magnesium, rabeprazole sodium, pantoprazole sodium and lansoprazole in the Chinese Pharmacopoeia (Volume II, 2015 Edition) so as to determine the stability of the prazoles in the media at pH 6.8 and 8.0.

[1] = buffer, 0.25 h, 0.5 µg/mL, pH 6.8
[2] = buffer, 0.25 h, 0.5 µg/mL, pH 8
[3] = buffer, 0.5 h, 0.5 µg/mL, pH 6.8
[4] = buffer, 0.75 h, 0.5 µg/mL, pH 6.8
[5] = buffer, 0.75 h, 0.5 µg/mL, pH 8

| remaining amount after the degradation (buffer, 0 h, 0.5 µg/mL, pH 6.8) [%] | remaining amount after the degradation (buffer, 0 h, 0.5 µg/mL, pH 8) [%] | remaining amount after the degradation [1] [%] | remaining amount after the degradation [2] [%] | remaining amount after the degradation [3] [%] | remaining amount after the degradation (buffer, 0.5 h, 0.5 µg/mL, pH 8) [%] | remaining amount after the degradation [4] [%] | remaining amount after the degradation [5] [%] | remaining amount after the degradation (buffer, 1 h, 0.5 µg/mL, pH 6.8) [%] | remaining amount after the degradation (buffer, 1 h, 0.5 µg/mL, pH 8) [%] | Compound | stability in medium at pH 6.8 compared between prazoles (pH 6.8) | other results |
| --- | --- | --- | --- | --- | --- | --- | --- | --- | --- | --- | --- | --- |
| 100.0 | 100.0 | 85.7 | 98.7 | 70.2 | 96.2 | 53.6 | 95.3 | 38.6 | 93.5 | Cc1c(OCC(F)(F)F)ccnc1C[S+]([O-])c1nc2ccccc2[nH]1 (stereo not drawn) [Lansoprazole, lansoprazole] | – | – |
| 100.0 | 100.0 | 70.3 | 97.3 | 51.5 | 93.5 | 38.6 | 90.6 | 24.6 | 88.5 | COCCCOc1ccnc(C[S+]([O-])c2nc3ccccc3[nH]2)c1C (stereo not drawn) [Rabeprazole sodium, rabeprazole sodium] | – | – |

More lines, now with the values behind:

| Compound | remaining amount after the degradation (buffer, 0 h, 0.5 µg/mL, pH 6.8) [%] | remaining amount after the degradation (buffer, 0 h, 0.5 µg/mL, pH 8) [%] | remaining amount after the degradation [1] [%] | remaining amount after the degradation [2] [%] | remaining amount after the degradation [3] [%] | remaining amount after the degradation (buffer, 0.5 h, 0.5 µg/mL, pH 8) [%] | remaining amount after the degradation [4] [%] | remaining amount after the degradation [5] [%] | remaining amount after the degradation (buffer, 1 h, 0.5 µg/mL, pH 6.8) [%] | remaining amount after the degradation (buffer, 1 h, 0.5 µg/mL, pH 8) [%] | stability in medium at pH 6.8 compared between prazoles (pH 6.8) | other results |
| --- | --- | --- | --- | --- | --- | --- | --- | --- | --- | --- | --- | --- |
| COc1ccc2[n-]c([S+]([O-])Cc3ncc(C)c(OC)c3C)nc2c1.COc1ccc2[n-]c([S+]([O-])Cc3ncc(C)c(OC)c3C)nc2c1.[Mg+2] (stereo not drawn) [Esomeprazole magnesium, esomeprazole magnesium] | – | – | – | – | – | – | – | – | – | – | the best | remaining amount after the degradation (medium at pH 6.8, 15 min): 89.6%; remaining amount after the degradation (medium at pH 6.8, 30 min): 70.9%; remaining amount after the degradation (medium at pH 6.8, 45 min): 56.0%; remaining amount after the degradation (medium at pH 6.8, 60 min): 41.4%; remaining amount after the degradation (medium at pH 8.0, 15 min): 99.2%; remaining amount after the degradation (medium at pH 8.0, 30 min): 98.6%; remaining amount after the degradation (medium at pH 8.0, 45 min): 97.6%; remaining amount after the degradation (medium at pH 8.0, 60 min): 96.4% |
| COc1ccnc(C[S+]([O-])c2nc3cc(-n4cccc4)ccc3[nH]2)c1C (stereo not drawn) [Ilaprazole, ilaprazole] | 100.0 | 100.0 | 59.7 | 94.3 | 42.7 | 91.5 | 29.4 | 88.6 | 20.7 | 84.6 | the worst | – |
| COc1ccc2[n-]c([S+]([O-])Cc3ncc(C)c(OC)c3C)nc2c1.COc1ccc2[n-]c([S+]([O-])Cc3ncc(C)c(OC)c3C)nc2c1.[Mg+2] (stereo not drawn) [Omeprazole magnesium, omeprazole magnesium] | – | – | – | – | – | – | – | – | – | – | – | remaining amount after the degradation (buffer, 0 h, pH 6.8): 100.0%; remaining amount after the degradation (buffer, 0 h, pH 8): 100.0%; remaining amount after the degradation (buffer, 0.25 h, pH 6.8): 81.2%; remaining amount after the degradation (buffer, 0.25 h, pH 8): 98.2%; remaining amount after the degradation (buffer, 0.5 h, pH 6.8): 66.7%; remaining amount after the degradation (buffer, 0.5 h, pH 8): 95.4%; remaining amount after the degradation (buffer, 0.75 h, pH 6.8): 47.4%; remaining amount after the degradation (buffer, 0.75 h, pH 8): 96.3%; remaining amount after the degradation (buffer, 1 h, pH 6.8): 29.2%; remaining amount after the degradation (buffer, 1 h, pH 8): 91.2% |
| COc1ccnc(C[S+]([O-])c2nc3ccc(OC(F)F)cc3[nH]2)c1OC (stereo not drawn) [Pantoprazole sodium, pantoprazole sodium] | 100.0 | 100.0 | 83.6 | 98.6 | 65.9 | 95.9 | 50.2 | 92.2 | 35.4 | 91.4 | – | – |
